Measurements published in patent publication US20120100204A1, “TGF-Beta Stimulating Agent Compositions and Combinations” (TCP INNOVATIONS LTD, priority 2007, published 2012).

Columns and labels:
[1] = tested on: TGF-beta activity; experiment: TGF-beta activity by effect on SMC proliferation (CPD) with and without neutralising anti-TGF-beta antibody; assay type: cell-based, human; conditions: 0 μM T, 72 hrs
Experimental: (1995) Cardiovasc. Res. 29:848-55). […] The cells were then incubated for either 24 hrs or 72 hrs depending on the experiment. All treatment conditions were established in triplicate. Finally, TGF-beta activity was estimated by the direct effects on smooth muscle cell proliferation within the assay. For these experiments, the test agents were added, in triplicate, to cells both in the presence and absence of a neutralising antibody to TGF-beta (AB-100-NA; […] R&D Systems). After 72 hrs incubation, the cells are washed and then released completely using 0.02% trypsin/EDTA (Gibco) at 37° C. for 10 mins, then counted manually using a haemocytometer. Importantly, the number of cells at 0 hrs must also be determined (using the same counting method, on a replicate set of three wells plated out specifically for the purpose). For each treatment condition, the TGF-beta-dependent inhibition of proliferation is expressed as the fold increase in the cumulative population doubling time in the absence of the neutralising antibody compared to the cumulative population doubling time in the presence of the neutralising antibody. […] Failure of either control led to the repeat of the experiment.

[2] = tested on: DBA/1 mice; experiment: collagen-induced arthritis, footpad thickness; assay type: in vivo; conditions: from the booster injection onwards, Tamoxifen 1 mg/kg/day p.o, aspirin 30 mg/kg/day p.o
Experimental: Collagen-induced arthritis was induced in adult male DBA/1 mice as previously described (Courtenay et al. (1980) Nature 283:666-8). Adult (12 week old) male DBA/1 mice were divided into groups of six animals. Mice received 100 μg per mouse of bovine type II collagen (Sigma) in Freunds Complete Adjuvant (FCA) by the subcutaneous route, while a control group received an identical injection of type I collagen in FCA. Twenty-one days later, all groups of mice received an intraperitoneal booster injection containing 100 μg per mouse of the same collagen type as previously, but in the absence of adjuvant. […] Foodpad thickness was determined each day using a digital caliper EC1507 (Moore & Wright) accurate to 0.01 mm. The thickness of each footpad was determined three times on each day by a single operator blind to the treatment condition of the mouse, and the footpad thickness of each mouse on each day was reported as the mean for the three measurements for all four paws. Errors represent the standard error of the mean among the six animals in each group.

[3] = critical micelle concentration; assay type: physicochemical; conditions: in the presence of 20% foetal calf serum
[4] = tested on: anti-carbohydrate antibodies; experiment: anti-carbohydrate antibody isotype profile in serum of men with coronary artery disease, direct ELISA; assay type: in vivo, human; conditions: 3 months
Experimental: Blood samples were also taken at baseline, immediately prior to beginning the drug treatments, and also after 90 days. The blood was drawn from the antecubital fossa using 19-gauge butterfly needles, and dispensed into polypropylene tubes, where it was allowed to clot for between 2 and 3 hours at room temperature. The clot was released, and the sample spun (450×g; 4 mins), and the serum supernatant removed, aliquoted and stored frozen at −80° C. until analysed.
The level of anti-carbohydrate antibodies was measured by direct ELISA as previously described (Mosedale et al (2006) J. Immunol. Meth. 309:182-91). Briefly, Maxisop 96-well plates were coated with BSA-alpha-Gal (Glycorex) at 1 μg/well in 200 μl of Sodium Carbonate pH9.0 overnight at 4° C. After three quick washes with PBS, non-specific binding was blocked using 3% BSA in PBS at room temperature for 1 hour. After three further washes the serum was added at various dilutions ranging from neat to 1:100 dilution in PBS, then incubated for 2 hours at room temperature with shaking. The serum was then discarded, the plate washed 5 further times with PBS+0.1% Tween-20, and replicate strips (each containing a full range of dilutions of the same serum sample) were exposed to highly specific monoclonal antibodies to each isotype, including IgG1, IgG2, IgG3, IgG4, IgM, IgA, IgE and IgD, at 1 μg/ml in blocking buffer. After a further hour at room temperature with shaking, the antibody was discarded and the plate washed 3 further times with PBS/Tween, before being exposed to donkey anti-mouse IgG minimum cross reactivity, coupled to horseradish peroxidase (Jackson Immunoresearch), at 1 μg/ml in blocking buffer for a further 1 hour at room temperature with shaking. After a final 3 washes in PBS/Tween and single wash in PBS, 200 μl of K-blue chromogenic substrate was added to each well. After a carefully controlled period, accurate to 5 seconds, equal for all wells, the reaction was stopped by the addition of 50 μl 2M HCl and the colour read at 450 nm. Results are reported for each isotype as the mean titre (that is, the dilution of serum which yielded 50% of the maximal signal) as well as the mean signal at that titre (since the maximum absorbance in many cases was considerably below full scale deflection).
Blood samples were also taken at baseline, immediately prior to beginning the drug treatments, and also after 90 days, and serum prepared exactly as in Example 5. The level of anti-carbohydrate antibodies was then measured by direct ELISA using the procedure given in Example 5.

[5] = pro-thrombin time (PTT) in men with coronary artery disease; conditions: men with coronary heart disease, 3 months, Tamoxifen 20 mg once daily, vs baseline
Experimental: Patients continued with all other medications (statins, ACE inhibitors, beta blockers, calcium channel blockers, diuretics etc), but no patients were taking warfarin or tirofiban.
The coagulant status of the individuals was assessed using the pro-thrombin time (PTT, measured clinically; Hinchingbrooke Hospital, UK). PTT was measured twice, one week apart, prior to beginning the study, and then after 90 days treatment. In each case, each patient acted as their own control, and the impact of the treatment on PTT was assessed using a paired Student's t-test comparing the PTT at 90 days with the average of the two baseline determinations.

[6] = translated from the relative risk; cited from earlier work
[7] = tested on: human aortic vascular smooth muscle cells; experiment: toxicity to cultured smooth muscle cells; assay type: cell-based
Experimental: The cells were cultured (37° C.; 5% CO2) in DMEM+20% foetal calf serum (FCS), and subcultured every 5 days at 1:2 dilution, using 0.02% trypsin/EDTA (Gibco).
For the experiments, the cells were subcultured into 12-well cluster plates at 1×10^5 cells/cm^2, and allowed to grow for 24 hrs. […] The cells were then incubated for either 24 hrs or 72 hrs depending on the experiment. All treatment conditions were established in triplicate.

[8] = Tamoxifen 20 mg once daily, aspirin 75 mg once daily, mean ± SD
[9] = neat serum, Tamoxifen 20 mg once daily, aspirin 75 mg once daily, mean ± SD

Compound: CC(=O)Oc1ccccc1C(=O)O [Aspirin, acetylsalicylic acid]
- TGF-beta activity: ratio of CPD in the absence and presence of neutralising anti-TGF-beta antibody ([1]; 10 μM A): 1.05 ± 0.09 fold
- TGF-beta activity: ratio of CPD in the absence and presence of neutralising anti-TGF-beta antibody ([1]; 33 μM A): 1.13 ± 0.17 fold
- TGF-beta activity: ratio of CPD in the absence and presence of neutralising anti-TGF-beta antibody ([1]; 100 μM A): 1.25 fold
- TGF-beta activity: ratio of CPD in the absence and presence of neutralising anti-TGF-beta antibody ([1]; 100 μM A, listed as A): 1.25 ± 0.06 fold

Compound: CC/C(=C(\c1ccccc1)c1ccc(OCCN(C)C)cc1)c1ccccc1 [Tamoxifen]
- reduction of the maximal collagen-II induced footpad swelling [2]: 36%
- critical micelle concentration [3]: approximately 50 μM
- IgA titre, change versus baseline [4, 8]: +14% ± 52%
- IgD titre, change versus baseline [4, 8]: −234% ± 113%
- IgG2 titre, change versus baseline [4, 8]: +176% ± 43%
- IgM titre, change versus baseline [4, 8]: +16% ± 28%
- absorbance of the IgA class anti-carbohydrate antibodies (in words) ([4]; Example 6): statistically significantly increased
- titre of IgD class anti-carbohydrate antibodies (in words) ([4]; Example 6): statistically significantly reduced
- titre of the IgG2 class anti-carbohydrate antibodies (in words) ([4]; Example 6): statistically significantly increased
- IgA Absorbance, change versus baseline [4, 9]: 0.31 ± 0.17
- IgD Absorbance, change versus baseline [4, 9]: −0.82 ± 0.51
- IgG2 Absorbance, change versus baseline [4, 9]: +0.61 ± 0.17
- IgM Absorbance, change versus baseline [4, 9]: −0.29 ± 0.36
- change in pro-thrombin time ([5]; Example 5, aspirin 75 mg once daily): +17%
- change in pro-thrombin time ([5]; Example 6, clopidogrel 75 mg once daily): +19%
- reduction in risk of death from myocardial infarction [6]: 33%
- concentrations toxic to the cells ([7]; after 24 hrs): above 33 μM
- doses toxic to the cells ([7]; after 72 hrs): above 10 μM
